From ChEMBL document CHEMBL3734714, “Synthesis and cytostatic activity of 7-arylsulfanyl-7-deazapurine bases and ribonucleosides” (Medchemcomm, 2015) come the findings set out here.

Experiment [1] can be described thus: Cytostatic activity against p53 deficient human HCT116 cells after 3 days by MTT assay. The experiment is classed as functional, cell-based. Particulars: HCT-116, 72 h.
Another experiment relates to K562. The experiment in a line: Cytostatic activity against human K562 cells after 3 days by MTT assay. The experiment is classed as functional, cell-based. Particulars: K562, 72 h.
A short description of experiment [2]: Antiviral activity against RSV. The experiment is classed as functional, organism-based.
Experiment [3] relates to Hepatitis C virus. Put plainly: Antiviral activity against HCV1B. The experiment is classed as functional, organism-based. Particulars: Hepacivirus hominis; genotype 1b.
The test system of the next experiment is BJ. The experiment in a line: Cytostatic activity against human BJ cells after 3 days by MTT assay. The experiment is classed as ADME, cell-based. The following applies: 72 h.
The nature of experiment [4]: Cytostatic activity against human CEM/DNR cells after 3 days by MTT assay. The experiment is classed as functional, cell-based. The following applies: 72 h.
A further experiment concerns HepG2. Put plainly: Cytostatic activity against human HepG2 cells assessed as cell viability after 6 days by XTT assay. The experiment is classed as functional, cell-based. Particulars: HepG2, 144 h.
Experiment [5] is described as follows: Cytostatic activity against human HCT116 cells after 3 days by MTT assay. The following applies: HCT-116, 72 h. The experiment is classed as functional, cell-based.
The next experiment deals with A549. The experiment in a line: Cytostatic activity against human A549 cells after 3 days by MTT assay. The experiment is classed as functional, cell-based. The following applies: A549, 72 h.
Experiment [6] is described as follows: Cytostatic activity against human K562-TAX cells after 3 days by MTT assay. The following applies: 72 h. The experiment is classed as functional, cell-based.
In experiment [7] the test system is Hepatitis C virus. The experiment in a line: Antiviral activity against HCV2A. The experiment is classed as functional, organism-based. Particulars: Hepacivirus hominis; genotype 2a.
In the next experiment the test system is CCRF-CEM. The experiment in a line: Cytostatic activity against human CCRF-CEM cells after 3 days by MTT assay. The experiment is classed as functional, cell-based. The following applies: 72 h.
A further experiment relates to HL-60. Put plainly: Cytostatic activity against human HL60 cells assessed as cell viability after 6 days by XTT assay. The experiment is classed as functional, cell-based. The following applies: HL-60, 144 h.
For another experiment, the system named is HeLa S3. Put plainly: Cytostatic activity against human HeLaS3 cells assessed as cell viability after 6 days by XTT assay. The experiment is classed as functional, cell-based. Particulars: HeLa S3, 144 h.
A further experiment has as its system Candida. The experiment in a line: Antifungal activity against Candida sp. The experiment is classed as functional, organism-based.
A further experiment deals with MRC5. Put plainly: Cytostatic activity against human MRC5 cells after 3 days by MTT assay. Particulars: MRC5, 72 h. The experiment is classed as ADME, cell-based.

The source made the active and inactive calls. No cut-off for these calls is given here. Bounds are passed on as bounds.

In the case of `CN(C)c1ncnc2[nH]cc(Sc3cccs3)c12`, the IC50 in experiment [1] is 27.5 µM; in the experiment with K562 it was 3.83 µM; with BJ, 145 µM; in experiment [4] it was 35.2 µM; with HepG2, above 25 µM; in [5], 11 µM. Also, the IC50 is 19.8 µM with A549; 22.1 µM in experiment [6]; 14.6 µM with CCRF-CEM; above 25 µM with HL-60; above 25 µM with HeLa S3; above 150 µM in the experiment with MRC5. The outcome (in [2]; in the experiment on Hepatitis C virus [3]; in the experiment with Hepatitis C virus [7]; with Candida) was inactive.

As to `c1csc(Sc2c[nH]c3ncnc(-c4cccs4)c23)c1`, the IC50 in [1] was 5.06 µM; in the experiment on K562, 5.14 µM; in the experiment with BJ, 23.4 µM; in experiment [4], 17.7 µM; in the experiment on HepG2 it was above 25 µM; in experiment [5], 13 µM. Moreover, the IC50 in the experiment with A549 was 16.2 µM; in experiment [6], 21.7 µM; with CCRF-CEM, 10.6 µM; in the experiment with HL-60, 21.1 µM; in the experiment with HeLa S3, above 25 µM; in the experiment with MRC5 it was 54.5 µM. The result (in [2]; in the experiment with Hepatitis C virus [3]; with Hepatitis C virus [7]; in the experiment with Candida) was inactive.

Take `Nc1ncnc2c1c(Sc1cccs1)cn2[C@@H]1O[C@H](CO)[C@@H](O)[C@H]1O`: the IC50 in [1] was 23.2 µM; with K562, 23.4 µM; in the experiment with BJ, 93.6 µM; in experiment [4], above 100 µM; in the experiment with HepG2, above 25 µM; in experiment [5] it was 36.7 µM. Moreover, the IC50 in the experiment on A549 was 43.8 µM; in [6] it was 55.8 µM; in the experiment with CCRF-CEM it was 64.7 µM; with HL-60 it was above 25 µM; with HeLa S3, above 25 µM; in the experiment on MRC5 it was 138 µM. For the same compound, the outcome (in experiment [2]; in the experiment with Hepatitis C virus [3]; with Hepatitis C virus [7]; in the experiment with Candida) was inactive.

`COc1ncnc2[nH]cc(Sc3cccs3)c12`: the IC50 was above 50 µM in experiment [1]; above 50 µM in the experiment with K562; 123 µM in the experiment with BJ; above 50 µM in experiment [4]; above 25 µM in the experiment with HepG2; 17.2 µM in experiment [5]. The IC50 with A549 was 21.5 µM; in [6] it was 44 µM; in the experiment on CCRF-CEM, 18.2 µM; in the experiment on HL-60 it was above 25 µM; in the experiment with HeLa S3, 23.9 µM; with MRC5 it was 148 µM. Besides, the result (in [2]; with Hepatitis C virus [3]; in the experiment with Hepatitis C virus [7]; with Candida) was inactive.

Take `Cc1ncnc2[nH]cc(Sc3cccs3)c12`: the IC50 was 29.1 µM in [1]; 14 µM in the experiment on K562; above 150 µM in the experiment with BJ; above 50 µM in [4]; above 25 µM in the experiment on HepG2; 38.1 µM in [5]. The IC50 with A549 was above 50 µM; in [6], 64.6 µM; with CCRF-CEM it was above 50 µM; with HL-60, above 25 µM; in the experiment with HeLa S3, above 25 µM; in the experiment on MRC5 it was 136 µM. In addition, the outcome (in experiment [2]; in the experiment on Hepatitis C virus [3]; with Hepatitis C virus [7]; with Candida) was inactive.

On to `CNc1ncnc2[nH]cc(Sc3cccs3)c12`, for which the IC50 was 45.3 µM in [1]; 4.95 µM with K562; 132 µM in the experiment with BJ; 26.2 µM in experiment [4]; above 25 µM with HepG2; 19 µM in [5]. Moreover, the IC50 with A549 was determined as 28.6 µM; in experiment [6], 21 µM; in the experiment on CCRF-CEM it was 14.7 µM; in the experiment on HL-60, 13.5 µM; with HeLa S3, 17.6 µM; in the experiment with MRC5, 148 µM. Also, the outcome (in [2]; in the experiment with Hepatitis C virus [3]; with Hepatitis C virus [7]; in the experiment on Candida) was inactive.

On to `Nc1ncnc2c1c(Sc1ccccc1)cn2[C@@H]1O[C@H](CO)[C@@H](O)[C@H]1O`, for which the IC50 in experiment [1] was 22.4 µM; with K562, 23.1 µM; in the experiment on BJ, 67.9 µM; in [4] it was above 50 µM; in the experiment with HepG2, above 25 µM; in experiment [5] it was 20.8 µM. In addition, the IC50 was 22.9 µM in the experiment on A549; 29.6 µM in experiment [6]; 34 µM in the experiment on CCRF-CEM; above 25 µM with HL-60; above 25 µM in the experiment with HeLa S3; 67.7 µM in the experiment on MRC5. Also, the result (in experiment [2]; in the experiment with Hepatitis C virus [3]; in the experiment with Hepatitis C virus [7]; in the experiment on Candida) was inactive.

In the case of `Nc1ncnc2[nH]cc(Sc3cccs3)c12`, the IC50 was above 50 µM in experiment [1]; 17.9 µM in the experiment on K562; above 150 µM in the experiment on BJ; 20.3 µM in experiment [4]; above 25 µM with HepG2; 22.8 µM in experiment [5]. Besides, the IC50 in the experiment on A549 stood at 22.8 µM; in [6], 17.9 µM; in the experiment on CCRF-CEM, 16.7 µM; in the experiment on HL-60, 13.9 µM; in the experiment on HeLa S3, 17.9 µM; in the experiment on MRC5, 136 µM. Also, the result (in experiment [2]; in the experiment with Hepatitis C virus [3]; in the experiment on Hepatitis C virus [7]; in the experiment on Candida) was inactive.

Consider `c1coc(-c2ncnc3[nH]cc(Sc4cccs4)c23)c1`, for which the IC50 is 19.5 µM in experiment [1]; 4.26 µM in the experiment with K562; 22.1 µM in the experiment with BJ; 20.8 µM in experiment [4]; above 25 µM in the experiment with HepG2; 6.75 µM in [5]. Further, the IC50 was determined as 11.4 µM with A549; 18.9 µM in experiment [6]; 7.73 µM in the experiment on CCRF-CEM; 7.63 µM with HL-60; 8.49 µM with HeLa S3; 32.9 µM in the experiment with MRC5. The result (in experiment [2]; with Hepatitis C virus [3]; in the experiment on Hepatitis C virus [7]; in the experiment on Candida) was inactive.
